In patent US20240408126A1, “BACTERIAL CAPSULAR OLIGOSACCHARIDE DERIVATIVE, PREPARATION METHOD THEREFOR, PHARMACEUTICAL COMPOSITION AND USE THEREOF” (PEKING UNIVERSITY, priority 2021, published 2024):

What was measured:
[1] = test system: LPS-induced sepsis model; assay: LPS-induced survival rate in sepsis model of mice; format: in vivo, male C57BL/6 mice; settings: three times, LPS 45 mg/kg, after 72 hours, model group 40%
Procedure: A total of 60 male C57BL/6 mice aged 6-8 weeks, weighing 20±2 g, were selected. The mice were placed in a feeding room with temperature of 20-24° C. and humidity of 50%-60%, and were allowed to drink and eat freely. They were adaptively raised for 7 days before the experiment.
The mice were randomly divided into six groups: control group, model group, CP-1 high dose group (30 mg/kg), CP-1 middle dose group (10 mg/kg), CP-1 low dose group (3 mg/kg), and dexamethasone group, with 10 mice in each group. CP-1 high-dose group was intraperitoneally injected with 200 μL CP-1 solution at the concentration of 30 mg/kg, CP-1 middle-dose group was intraperitoneally injected with equal volume of CP-1 solution at the concentration of 10 mg/kg, CP-1 low-dose group was intraperitoneally injected with equal volume of CP-1 solution at the concentration of 3 mg/kg, dexamethasone group was intraperitoneally injected with equal volume of dexamethasone solution at the concentration of 30 mg/kg, and control group was intraperitoneally injected with equal volume of 0.9% normal saline. Except for the control group, all groups were intraperitoneally injected with 200 μL of LPS solution at 45 mg/kg for modeling. Each group was administered once for a total of three times, 48 hours and 24 hours before modeling, and 30 minutes after modeling. After administration, the state and survival rate of mice were observed and recorded every 6 hours for 72 hours.

[2] = test system: LPS-induced inflammatory factors in serum; assay: LPS-induced cytokines in serum of sepsis mouse model (CP-Me); format: in vivo, male C57BL/6 mice; settings: 10 mg/kg and 3 mg/kg intraperitoneal, two times; LPS 25 mg/kg; serum after 12 hours; IL-1β, IL-6, TNF-α; FIG. 7
Procedure: A total of 24 male C57BL/6 mice aged 6-8 weeks, weighing 20±2 g, were selected. The mice were placed in a feeding room with temperature of 20-24° C. and humidity of 50%-60%, and were allowed to drink and eat freely. They were adaptively raised for 7 days before the experiment. Mice were randomly divided into four groups: control group, CP-Me group, LPS group and LPS+CP-Me group, with 6 mice in each group. CP-Me 10 mg/kg group and CP-Me 3 mg/kg group were intraperitoneally injected with 200 μL CP-Me solution at the concentrations of 10 mg/kg and 3 mg/kg, while the control group and LPS group were intraperitoneally injected with equal volume of 0.9% normal saline. LPS group was injected intraperitoneally with 200 μL LPS solution at 25 mg/kg for modeling. Each group was administered once for a total of two times, 12 hours before modeling and 30 minutes after modeling. After 12 hours of administration, the mice were anesthetized and blood was taken from the heart. After the blood stood for 2 hours, it was centrifuged at 5000 rpm for 10 minutes to collect serum. According to the instructions of Elisa kit, the absorbance of each hole was detected by using a multifunctional enzyme-labeled instrument at the wavelength of 450 nm, and the contents of cytokines IL-1β, IL-6, and TNF-α were calculated according to the standard curve.

Compound | survival rate of mice ([1]; 3 mg/kg (low dose) intraperitoneal) [%] | survival rate of mice ([1]; 10 mg/kg (middle dose) intraperitoneal) [%] | survival rate of mice ([1]; 30 mg/kg intraperitoneal) [%] | effect on LPS-induced inflammatory factors in serum [2]
CC(=O)NC1[C@H](OC2[C@@H](O[C@@H]3C(NC(C)=O)C(O)OC(CO)[C@@H]3O)OC(C(=O)O)[C@H](O)[C@@H]2O)OC(CO)[C@@H](O)[C@@H]1O[C@@H]1OC(C(=O)O)[C@@H](O)[C@H](O)C1O (stereo partly drawn) [CP-1, β-D-glucopyranuronic acid-(1→3)-2-deoxy-2-acetylamino-β-D-glucopyranosyl-(1→2)-α-D-galactopyranoic acid-(1→3)-2-deoxy-2-acetylamino-α,β-D-galactopyranoside] | 70 | 80 | 70 | –
CO[C@@H]1OC(CO)[C@H](O)C(O[C@H]2OC(C(=O)O)[C@H](O)C(O)C2O[C@@H]2OC(CO)[C@@H](O)C(O[C@@H]3OC(C(=O)O)[C@@H](O)C(O)C3O)C2NC(C)=O)C1NC(C)=O (stereo partly drawn) [CP-Me, methyl β-D-glucopyranuronic acid-(1→3)-2-deoxy-2-acetylamino-β-D-glucopyranosyl-(1→2)-α-D-galactopyranoic acid-(1→3)-2-deoxy-2-acetylamino-α,β-D-galactopyranoside] | – | – | – | inhibitory effect
C[C@@H]1C[C@H]2[C@@H]3CCC4=CC(=O)C=C[C@]4(C)[C@@]3(F)[C@@H](O)C[C@]2(C)[C@@]1(O)C(=O)CO [dexamethasone, reference compound] | – | – | 60 | –
